Laboratory results published in patent US20040014791A1, “Thiazolidinedione derivative and its use as antidiabetic” (priority 2000, published 2004).

Tests used:
[1] = Solid state stability of the drug substance (storage, HPLC assay for final content and degradation products); assay type: physicochemical; conditions: 1 month, product of Example 3
Description: The solid state stability of the drug substance was determined by storing approximately 1.0 g of the material in a glass bottle at a) 40° C./75% Relative Humidity (RH), open exposure, for 1 month and b) at 50° C., closed, foe 1 month. The material was assayed by HPLC for final content and degradation products in both cases.

[2] = Flow properties: Hausner Ratio (bulk density vs tapped bulk density); assay type: physicochemical; conditions: ratio between the bulk density and the tapped bulk density; product of Example 3
Description: When used herein in respect of certain compounds the term “good flow properties” is suitably characterised by the said compound having a Hausner ratio of less than or equal to 1.5, especially of less than or equal to 1.25.
Flow Properties of the Fumarate
The ratio between the bulk density and the tapped bulk density (Hausner Ratio) of the Fumarate was determined using standard methods (“Pharmaceutics—The Science of Dosage Form Design”, editor M. Aulton, 1988, published by: Churchill Livingstone).

[3] = 40° C./75% Relative Humidity (RH), open exposure

With CN(CCOc1ccc(CC2SC(=O)NC2=O)cc1)c1ccccn1.O=C(O)/C=C/C(=O)O (centres unmarked) [Fumarate, 5-[4-[2-(N-methyl-N-(2-pyridyl)amino)ethoxy]benzyl]thiazolidine-2,4-dione fumarate] the “Solid state stability: HPLC assay” value [1, 3] was 100 % initial, the “Solid state stability: degradation observed” value [1, 3] was “No significant degradation observed” and the “Solid state stability: HPLC assay” value ([1]; 50° C., closed) was 99 % initial. For the same molecule, the “Solid state stability: degradation observed” value ([1]; 50° C., closed) was “No significant degradation observed” and the “Hausner Ratio” value [2] was 1.0.
